Results published in PMC5666424, “Marine-Derived 2-Aminoimidazolone Alkaloids. Leucettamine B-Related Polyandrocarpamines Inhibit Mammalian and Protozoan DYRK & CLK Kinases” (Marine Drugs, 2017).

Legend:
Experiment in all cases: KinomeScan
Assay type in all cases: binding
Details in all cases: 1 μM
AKT1 = target: T1, AKT1 (Homo sapiens, UniProt P31749)
T1 construct: purchased DiscoverX (KINOMEscan)

AURKC = target: T2, AURKC (Homo sapiens, UniProt Q9UQB9)
T2 construct: purchased DiscoverX (KINOMEscan)

BRAF = target: T3, BRAF (Homo sapiens, UniProt P15056)
T3 construct: purchased DiscoverX (KINOMEscan)

CAMK2G = target: T4, CAMK2G (Homo sapiens, UniProt Q13555)
T4 construct: purchased DiscoverX (KINOMEscan)

CAMKK1 = target: T5, CAMKK1 (Homo sapiens, UniProt Q8N5S9)
T5 construct: purchased DiscoverX (KINOMEscan)

CDK11 = target: T6, CDK11 (Homo sapiens, UniProt Q9BWU1)
T6 construct: purchased DiscoverX (KINOMEscan)

CDK8 = target: T7, CDK8 (Homo sapiens, UniProt P49336)
T7 construct: purchased DiscoverX (KINOMEscan)

CDKL2 = target: T8, CDKL2 (Homo sapiens, UniProt Q92772)
T8 construct: purchased DiscoverX (KINOMEscan)

CSNK1A1L = target: T9, CSNK1A1L (Homo sapiens, UniProt Q8N752)
T9 construct: purchased DiscoverX (KINOMEscan)

DMPK = target: T10, DMPK (Homo sapiens, UniProt Q09013)
T10 construct: purchased DiscoverX (KINOMEscan)

EPHA3 = target: T11, EPHA3 (Homo sapiens, UniProt P29320)
T11 construct: purchased DiscoverX (KINOMEscan)

EPHB6 = target: T12, EPHB6 (Homo sapiens, UniProt O15197)
T12 construct: purchased DiscoverX (KINOMEscan)

FLT3(K663Q) = target: T13, FLT3(K663Q) (Homo sapiens, UniProt P36888, K663Q)
T13 construct: purchased DiscoverX (KINOMEscan)

FRK = target: T14, FRK (Homo sapiens, UniProt P42685)
T14 construct: purchased DiscoverX (KINOMEscan)

HCK = target: T15, HCK (Homo sapiens, UniProt P08631)
T15 construct: purchased DiscoverX (KINOMEscan)

IKK-beta = target: T16, IKK-beta (Homo sapiens, UniProt O14920)
T16 construct: purchased DiscoverX (KINOMEscan)

IKK-epsilon = target: T17, IKK-epsilon (Homo sapiens, UniProt Q14164)
T17 construct: purchased DiscoverX (KINOMEscan)

KIT(D816V) = target: T18, KIT(D816V) (Homo sapiens, UniProt P10721, D816V)
T18 construct: purchased DiscoverX (KINOMEscan)

LIMK1 = target: T19, LIMK1 (Homo sapiens, UniProt P53667)
T19 construct: purchased DiscoverX (KINOMEscan)

LIMK2 = target: T20, LIMK2 (Homo sapiens, UniProt P53671)
T20 construct: purchased DiscoverX (KINOMEscan)

LOK = target: T21, LOK (Homo sapiens, UniProt O94804)
T21 construct: purchased DiscoverX (KINOMEscan)

MAP3K4 = target: T22, MAP3K4 (Homo sapiens, UniProt Q9Y6R4)
T22 construct: purchased DiscoverX (KINOMEscan)

MARK3 = target: T23, MARK3 (Homo sapiens, UniProt P27448)
T23 construct: purchased DiscoverX (KINOMEscan)

MKNK1 = target: T24, MKNK1 (Homo sapiens, UniProt Q9BUB5)
T24 construct: purchased DiscoverX (KINOMEscan)

MLCK = target: T25, MLCK (Homo sapiens, UniProt Q32MK0)
T25 construct: purchased DiscoverX (KINOMEscan)

MYO3A = target: T26, MYO3A (Homo sapiens, UniProt Q8NEV4)
T26 construct: purchased DiscoverX (KINOMEscan)

NEK3 = target: T27, NEK3 (Homo sapiens, UniProt P51956)
T27 construct: purchased DiscoverX (KINOMEscan)

NEK4 = target: T28, NEK4 (Homo sapiens, UniProt P51957)
T28 construct: purchased DiscoverX (KINOMEscan)

SIK2 = target: T29, SIK2 (Homo sapiens, UniProt Q9H0K1)
T29 construct: purchased DiscoverX (KINOMEscan)

SRC = target: T30, SRC (Homo sapiens, UniProt P12931)
T30 construct: purchased DiscoverX (KINOMEscan)

STK33 = target: T31, STK33 (Homo sapiens, UniProt Q9BYT3)
T31 construct: purchased DiscoverX (KINOMEscan)

TBK1 = target: T32, TBK1 (Homo sapiens, UniProt Q9UHD2)
T32 construct: purchased DiscoverX (KINOMEscan)

TRKC = target: T33, TRKC (Homo sapiens, UniProt Q16288)
T33 construct: purchased DiscoverX (KINOMEscan)

TSSK1B = target: T34, TSSK1B (Homo sapiens, UniProt Q9BXA7)
T34 construct: purchased DiscoverX (KINOMEscan)

ULK1 = target: T35, ULK1 (Homo sapiens, UniProt O75385)
T35 construct: purchased DiscoverX (KINOMEscan)

VEGFR2 = target: T36, VEGFR2 (Homo sapiens, UniProt P35968)
T36 construct: purchased DiscoverX (KINOMEscan)

YANK2 = target: T37, YANK2 (Homo sapiens, UniProt Q9NY57)
T37 construct: purchased DiscoverX (KINOMEscan)

YSK1 = target: T38, YSK1 (Homo sapiens, UniProt O00506)
T38 construct: purchased DiscoverX (KINOMEscan)
T38 sequence (O00506 whole entry): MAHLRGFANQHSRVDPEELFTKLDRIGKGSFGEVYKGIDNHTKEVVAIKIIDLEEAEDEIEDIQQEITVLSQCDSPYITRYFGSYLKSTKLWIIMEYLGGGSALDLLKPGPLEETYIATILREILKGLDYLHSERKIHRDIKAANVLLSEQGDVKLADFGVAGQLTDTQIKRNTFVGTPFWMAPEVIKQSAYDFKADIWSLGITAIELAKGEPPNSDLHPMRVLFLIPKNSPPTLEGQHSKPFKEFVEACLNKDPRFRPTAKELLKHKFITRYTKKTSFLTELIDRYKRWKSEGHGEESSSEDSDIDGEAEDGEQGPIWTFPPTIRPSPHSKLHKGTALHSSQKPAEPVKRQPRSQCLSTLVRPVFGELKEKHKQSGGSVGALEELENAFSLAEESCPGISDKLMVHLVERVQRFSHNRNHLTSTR

T6 sequence (Q9BWU1 whole entry): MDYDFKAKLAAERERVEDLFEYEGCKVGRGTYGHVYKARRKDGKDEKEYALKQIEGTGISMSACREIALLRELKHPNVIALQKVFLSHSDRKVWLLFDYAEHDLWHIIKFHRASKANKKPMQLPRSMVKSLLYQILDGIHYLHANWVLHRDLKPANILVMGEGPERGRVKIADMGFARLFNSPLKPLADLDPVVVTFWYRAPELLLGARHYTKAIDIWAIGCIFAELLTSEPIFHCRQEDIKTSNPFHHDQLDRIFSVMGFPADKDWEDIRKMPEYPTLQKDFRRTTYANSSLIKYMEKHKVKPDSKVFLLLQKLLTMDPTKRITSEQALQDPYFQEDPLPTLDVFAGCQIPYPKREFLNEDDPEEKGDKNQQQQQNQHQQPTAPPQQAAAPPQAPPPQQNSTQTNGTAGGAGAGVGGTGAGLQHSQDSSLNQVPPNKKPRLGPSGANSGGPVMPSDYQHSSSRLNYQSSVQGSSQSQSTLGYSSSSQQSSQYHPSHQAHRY
T27 sequence (P51956 whole entry): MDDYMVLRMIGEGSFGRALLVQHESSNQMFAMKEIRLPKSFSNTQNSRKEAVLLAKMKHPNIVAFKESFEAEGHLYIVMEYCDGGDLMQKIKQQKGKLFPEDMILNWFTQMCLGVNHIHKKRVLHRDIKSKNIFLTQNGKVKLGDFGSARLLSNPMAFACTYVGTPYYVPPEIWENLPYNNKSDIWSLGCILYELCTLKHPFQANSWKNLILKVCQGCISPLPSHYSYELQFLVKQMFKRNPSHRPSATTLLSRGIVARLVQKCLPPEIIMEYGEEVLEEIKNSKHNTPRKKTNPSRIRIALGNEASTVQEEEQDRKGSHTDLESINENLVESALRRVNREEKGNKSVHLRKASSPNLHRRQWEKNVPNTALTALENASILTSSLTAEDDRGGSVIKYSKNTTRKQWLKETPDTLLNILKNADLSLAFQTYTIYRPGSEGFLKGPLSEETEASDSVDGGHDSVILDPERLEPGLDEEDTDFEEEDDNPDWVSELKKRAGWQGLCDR
T11 sequence (P29320 21-983): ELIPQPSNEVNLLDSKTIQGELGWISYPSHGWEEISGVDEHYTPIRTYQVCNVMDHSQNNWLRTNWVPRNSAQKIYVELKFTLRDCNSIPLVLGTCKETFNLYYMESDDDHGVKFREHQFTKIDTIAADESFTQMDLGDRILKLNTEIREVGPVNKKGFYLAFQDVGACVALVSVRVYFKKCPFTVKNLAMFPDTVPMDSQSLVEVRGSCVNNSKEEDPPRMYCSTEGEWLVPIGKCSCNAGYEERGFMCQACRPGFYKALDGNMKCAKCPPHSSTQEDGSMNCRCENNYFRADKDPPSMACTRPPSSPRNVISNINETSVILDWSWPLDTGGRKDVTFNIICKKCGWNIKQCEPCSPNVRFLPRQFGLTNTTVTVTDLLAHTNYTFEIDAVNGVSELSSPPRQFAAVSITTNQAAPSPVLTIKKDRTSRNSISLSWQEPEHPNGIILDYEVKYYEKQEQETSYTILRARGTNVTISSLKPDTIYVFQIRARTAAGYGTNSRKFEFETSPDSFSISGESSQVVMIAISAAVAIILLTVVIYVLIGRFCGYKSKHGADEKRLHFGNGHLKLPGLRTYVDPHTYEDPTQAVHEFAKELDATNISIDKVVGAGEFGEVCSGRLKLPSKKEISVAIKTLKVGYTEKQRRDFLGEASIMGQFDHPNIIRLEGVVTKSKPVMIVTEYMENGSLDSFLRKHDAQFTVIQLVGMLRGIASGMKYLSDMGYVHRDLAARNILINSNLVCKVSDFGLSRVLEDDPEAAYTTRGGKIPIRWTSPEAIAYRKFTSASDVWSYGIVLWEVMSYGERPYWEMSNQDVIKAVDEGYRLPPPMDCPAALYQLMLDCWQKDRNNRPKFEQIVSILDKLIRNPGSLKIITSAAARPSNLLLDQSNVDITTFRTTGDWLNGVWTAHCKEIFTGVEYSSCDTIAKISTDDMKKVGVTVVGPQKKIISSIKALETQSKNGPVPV
T25 sequence (Q32MK0 whole entry): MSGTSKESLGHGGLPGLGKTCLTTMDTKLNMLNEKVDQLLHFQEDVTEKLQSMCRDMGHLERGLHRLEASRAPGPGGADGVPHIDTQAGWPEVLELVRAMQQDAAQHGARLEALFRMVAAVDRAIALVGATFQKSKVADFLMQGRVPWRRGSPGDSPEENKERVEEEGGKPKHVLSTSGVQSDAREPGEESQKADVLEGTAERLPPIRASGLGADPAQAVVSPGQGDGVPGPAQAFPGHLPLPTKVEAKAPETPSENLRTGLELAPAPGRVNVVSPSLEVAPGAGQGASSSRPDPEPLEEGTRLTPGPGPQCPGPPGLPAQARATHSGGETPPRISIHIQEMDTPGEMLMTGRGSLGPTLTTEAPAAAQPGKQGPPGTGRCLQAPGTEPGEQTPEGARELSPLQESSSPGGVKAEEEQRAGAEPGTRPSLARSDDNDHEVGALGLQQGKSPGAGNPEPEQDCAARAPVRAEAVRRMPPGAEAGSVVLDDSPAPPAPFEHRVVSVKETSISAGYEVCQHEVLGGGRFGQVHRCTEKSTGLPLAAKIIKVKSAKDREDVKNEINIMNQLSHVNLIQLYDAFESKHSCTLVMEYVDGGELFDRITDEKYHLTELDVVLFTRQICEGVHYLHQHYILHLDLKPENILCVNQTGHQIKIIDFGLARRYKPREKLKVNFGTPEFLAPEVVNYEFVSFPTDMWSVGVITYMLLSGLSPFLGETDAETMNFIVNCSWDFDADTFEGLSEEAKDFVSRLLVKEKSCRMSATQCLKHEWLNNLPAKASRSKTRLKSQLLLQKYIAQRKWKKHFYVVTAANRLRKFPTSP
T35 sequence (O75385 whole entry): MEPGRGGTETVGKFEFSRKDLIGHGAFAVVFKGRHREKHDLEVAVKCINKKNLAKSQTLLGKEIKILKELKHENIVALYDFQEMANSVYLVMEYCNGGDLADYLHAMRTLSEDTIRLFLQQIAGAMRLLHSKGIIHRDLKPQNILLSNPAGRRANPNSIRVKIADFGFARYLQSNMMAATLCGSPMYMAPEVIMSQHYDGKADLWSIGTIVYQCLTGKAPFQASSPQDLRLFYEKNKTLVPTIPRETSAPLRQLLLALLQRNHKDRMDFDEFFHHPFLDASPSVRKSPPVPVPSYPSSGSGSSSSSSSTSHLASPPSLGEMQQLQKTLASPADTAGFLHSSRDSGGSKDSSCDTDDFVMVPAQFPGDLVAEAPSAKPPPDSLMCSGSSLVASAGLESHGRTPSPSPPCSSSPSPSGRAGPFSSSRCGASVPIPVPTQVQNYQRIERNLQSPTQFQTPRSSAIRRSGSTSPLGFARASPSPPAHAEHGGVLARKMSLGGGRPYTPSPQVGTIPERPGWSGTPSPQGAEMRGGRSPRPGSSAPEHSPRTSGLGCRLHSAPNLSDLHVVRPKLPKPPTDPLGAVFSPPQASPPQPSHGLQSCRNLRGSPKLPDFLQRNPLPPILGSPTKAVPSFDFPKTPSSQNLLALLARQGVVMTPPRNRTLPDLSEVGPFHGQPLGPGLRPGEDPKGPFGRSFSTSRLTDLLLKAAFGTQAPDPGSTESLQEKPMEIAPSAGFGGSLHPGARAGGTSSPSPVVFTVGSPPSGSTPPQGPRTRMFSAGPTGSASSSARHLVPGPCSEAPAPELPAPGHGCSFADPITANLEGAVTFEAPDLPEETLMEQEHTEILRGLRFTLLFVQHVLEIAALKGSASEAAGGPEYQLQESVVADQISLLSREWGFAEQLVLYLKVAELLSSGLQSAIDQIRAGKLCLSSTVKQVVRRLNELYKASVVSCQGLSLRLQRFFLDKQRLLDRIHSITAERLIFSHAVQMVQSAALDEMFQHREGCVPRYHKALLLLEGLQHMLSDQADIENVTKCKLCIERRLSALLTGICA
T19 sequence (P53667 whole entry): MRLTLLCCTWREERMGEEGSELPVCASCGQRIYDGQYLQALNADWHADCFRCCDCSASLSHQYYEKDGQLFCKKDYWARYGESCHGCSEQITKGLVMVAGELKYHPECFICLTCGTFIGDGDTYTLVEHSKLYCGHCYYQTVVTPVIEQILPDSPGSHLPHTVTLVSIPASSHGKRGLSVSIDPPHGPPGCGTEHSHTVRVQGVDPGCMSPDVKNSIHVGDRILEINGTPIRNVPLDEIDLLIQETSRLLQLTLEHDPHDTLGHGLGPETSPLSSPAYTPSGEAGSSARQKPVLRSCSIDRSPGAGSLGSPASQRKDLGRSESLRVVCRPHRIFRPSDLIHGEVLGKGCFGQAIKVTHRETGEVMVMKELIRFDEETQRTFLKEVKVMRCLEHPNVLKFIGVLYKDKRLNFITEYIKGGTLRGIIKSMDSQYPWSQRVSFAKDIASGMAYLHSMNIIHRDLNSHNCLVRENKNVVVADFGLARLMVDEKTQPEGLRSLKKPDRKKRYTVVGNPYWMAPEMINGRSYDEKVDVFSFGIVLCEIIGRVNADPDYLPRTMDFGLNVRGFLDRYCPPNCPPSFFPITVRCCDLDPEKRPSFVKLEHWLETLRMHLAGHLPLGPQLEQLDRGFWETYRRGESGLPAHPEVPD

With `COc1cc(/C=C2\N=C(N)NC2=O)ccc1O` [Polyandrocarpamine A] the Score (AKT1) was 100, the Score (AURKC) was 99 and the Score (BRAF) was 100. For the same compound, the Score (CAMK2G) was 99, the Score (CAMKK1) was 100 and the Score (CDK11) was 100. The Score (CDK8) was 100, the Score (CDKL2) was 100 and the Score (CSNK1A1L) was 100. The Score (DMPK) was 100, the Score (EPHA3) was 87 and the Score (EPHB6) was 97. For the same compound, the Score (FLT3(K663Q)) was 100, the Score (FRK) was 100 and the Score (HCK) was 100. The Score (IKK-beta) was 100, the Score (IKK-epsilon) was 89 and the Score (KIT(D816V)) was 100. For the same compound, the Score (LIMK1) was 100, the Score (LIMK2) was 96 and the Score (LOK) was 100. For the same compound, the Score (MAP3K4) was 100, the Score (MARK3) was 100 and the Score (MKNK1) was 63. It also gave a Score (MLCK) of 100, a Score (MYO3A) of 100 and a Score (NEK3) of 100. For the same compound, the Score (NEK4) was 100, the Score (SIK2) was 94 and the Score (SRC) was 100. For the same compound, the Score (STK33) was 100, the Score (TBK1) was 100 and the Score (TRKC) was 82. It also gave a Score (TSSK1B) of 100, a Score (ULK1) of 94 and a Score (VEGFR2) of 100. The Score (YANK2) was 94 and the Score (YSK1) was 100.
